From patent US20250221981A1, “MAT2A INHIBITOR AND/OR TSG101 INHIBITOR FOR USE IN ANTIVIRAL THERAPY” (CAMBRIDGE ENTERPRISE LIMITED, priority 2022, published 2025)

How the values were obtained:
BKPyV [1] = test: Fluorescence focus unit (FFU) assay of infectious BKPyV from treated RPTE/TERT1 cells; format: cell-based, BK polyomavirus; conditions: added 1 hr post infection, MOI 1
Experimental: (B) Effect of PF-9366 on viral replication: Cells were infected with BKPyV (MOI 1) in media containing appropriate drug concentrations. At 1 hpi infectious media was removed, cells were washed and fresh media with appropriate drug concentrations was added. At 48 hpi cells were harvested and infectious BKPyV was measured by FFU assay. n=3.
(§1) Cells were treated with MAT2A inhibitors at 1 hr post infection and were harvested at 48 hr post infection at MOI 1. (A) Total infectious BKPyV synthesis expressed as fold change to DMSO control (FFU titre assay). (B) Total viral protein expression (LTAg and VP1) was analysed by western blot. Tubulin was used as loading control. All error bars represent SEM. Two sample paired T-test was used to determine significance (*p<0.05; **p<0.01; ***p<0.001, ****p<0.0001), all numerical data shown were obtained over 2 independent experiments.
(§2) RPTE/hTERT cells were treated with inhibitors at 1 hr post infection (PI), infected at MOI 1. (A) Viral growth curves using FFU titre assay in drug treated and untreated cells infected with BKPyV at MOI 1 for 48 hr PI, 72 hr PI and 96 hr PI. (B) Total viral protein expression (LTAg and VP1) from drug treatments and untreated control was analysed by western blot with samples harvested at 48 hr PI and 96 hr PI. Tubulin was used as loading control. All error bars represent SEM. All numerical data shown were obtained over 2 independent experiments.
The ability for PF-9366 to inhibit the production of infectious virus was then investigated. RPTE/TERT1 cells were once again treated with a concentration range of PF-9366 or DMSO as a control prior to infection, and as before, infected with BKPyV (MOI 1) then washed and media replaced at 1 hpi. At 48 hpi total virus was harvested from each condition and an FFU assay was conducted to determine BKPyV virus titre (FIG. 3B).
For BKPyV infections, RPTE/TERT1, RPTE/TERT1-Cas9 or RPTE/TERT1 MAT2A KO cells were infected with BKPyV at either a multiplicity of infection (MOI) of 5 for growth curves or an MOI of 3 or 1 for all other experiments, diluted in appropriate medium. At 1 hour post infection (hpi) medium was removed, cells were washed twice with phosphate-buffered saline (PBS), and fresh medium was added with or without inhibitors. At 24, 48, 72 or 96 hpi cells were either harvested for western blot, RT qPCR or virus titre by FFU assay, or fixed for immunofluorescence analysis.
FFU assays were used to determine the concentration of infectious BKPyV in experimental samples. RPTE/TERT1 cells were infected with sample dilutions, fixed at 48 hpi in 3% formaldehyde, and immunostained for VP1 expression as described in Evans et al. (Open Biol. 2015 August; 5 (8): 150041).
Example 1: PF-9366 (Sigma-Aldrich) and AG-270 (kindly supplied by Astra Zeneca) were diluted in 100% DMSO. Cells were drug treated at a range of concentrations in REBM supplemented with BulletKit (Lonza) for 3 hours prior to infection. Cells were infected with BK-Dunlop in media and appropriate drug dilution. At 1 hpi infectious media was removed, cells gently washed with PBS and media containing appropriate drug dilutions was added. At 48 hpi cells were either fixed in 3% formaldehyde for microscopy, or harvested by scraping up into fresh drug-free media.
TSG101 inhibitor Ilaprazole (Sigma-Aldrich) was diluted in 100% DMSO. Cells were treated at a range of inhibitor concentrations and combinations, in appropriate media for the cell type used, for either 3 hours prior to infection (HSV-1, Alphavirus and Flavivirus infections) or 1 hour post infection (BKPyV infection).

BKPyV [2] = test: Western blot of BKPyV viral protein expression (LTAg, VP1) in RPTE/TERT1 cells; format: cell-based, BK polyomavirus; conditions: MOI 1
Experimental: (C)(i) Effect of PF-9366 on viral early and late gene and cellular MAT2A expression: Cells were infected with BKPyV (MOI 3) in media containing appropriate drug concentrations. At 1 hpi infectious media was removed, cells were washed and fresh media with appropriate drug concentrations was added. Cells were harvested at 48 hpi and a western blot performed. Membranes were blotted for viral late gene VP1, LTAg, cellular MAT2A/MAT1A, and tubulin as a loading control.
(iii) Viral gene expression is modulated in response to PF-9366: The density of BKPyV VP1 and LTAg expression were measured, normalized to tubulin loading control (LiCor Image Studio Software), n=3.
as §1, §2
It has previously been noted by Quinlan et al. (Nat Chem Biol. 2017 13 (7): 785-792) that treatment with PF-9366 can increase MAT2A expression as a compensatory mechanism within cells. To investigate this, cells were once again treated with a range of PF-9366 for 3 hours prior to infection (or DMSO treated). Cells were infected with BKPyV (MOI 3), washed at 1 hpi, and fresh drug treated media was added. At 48 hpi cells were harvested and protein expression was analysed by western blotting (FIG. 3C(i)). MAT2A expression was quantified from band intensities, normalised to the tubulin loading control and plotted (FIG. 3C(ii), n=3). A clear increase in the cellular expression of MAT2A was observed, up to an 8-fold increase at 10 μM PF-9366. Western blot analysis was also conducted on early viral gene (LTAg) and late viral gene (VP1) expression (FIG. 3C(iii), n=3).
Cell lysate preparation and western blots were performed as described in Ren et al. (J Gen Virol. 2012 February; 93 (Pt 2): 319-329). Primary antibodies used were ab53977 (VP1), PAb416 (LTAg), sc-166452 (MAT2A/1A), ab110226 (VP16), sc-53070 (ICP0), anti-Zika E Protein, and either anti-GAPDH or anti-tubulin as a loading control, followed by IRDye 680LT-, or IRDye 800CW-conjugated secondary antibodies. Imaging was performed using the LI-COR Odyssey Infrared Imaging system. Quantification was performed using LI-COR Image Studio Software.

RPTE/hTERT cells = test: Cell viability assay, CellTiter-Blue fluorescence
Experimental: RPTE/hTERT cells were treated with MAT2A inhibitors at increasing concentrations for 48 hrs and assayed for cell viability using CellTiter-Blue fluorescence. Experiments were conducted using biological triplicates.
Experiment was conducted using biological triplicates.
Cell viability was assessed using the Cell-Titer-Blue assay (Promega), following manufacturers guidelines.

[3] = 125 nM to 1 μM, dose dependent, 48 hr post infection

| Compound | BKPyV viral replication (FFU titre) (BKPyV [1]; Ilaprazole alone) | BKPyV protein expression (LTAg and VP1, western blot) (BKPyV [2]; Ilaprazole alone, 48 and 96 hr PI) | effect on cell viability (RPTE/hTERT cells; Ilaprazole alone, every 48 hr until 144 hr) | inhibition of BKPyV replication (total infectious BKPyV, FFU titre) (BKPyV [1]; 125 nM, 250 nM, 500 nM and 1 μM, 48 hr post infection) | early viral protein (LTAg) levels (western blot) (BKPyV [2]; [3]) | late viral protein (VP1) levels (western blot) (BKPyV [2]; [3]) | effect on cell viability and metabolism (RPTE/hTERT cells; at concentrations inhibiting BKPyV replication, 48 hrs) |
| --- | --- | --- | --- | --- | --- | --- | --- |
| COc1ccnc(C[S+]([O-])c2nc3cc(-n4cccc4)ccc3[nH]2)c1C (stereo not shown) [Ilaprazole] | significantly inhibit | significantly inhibit | little effect |  |  |  |  |
| CN(C)c1nc(=O)n(-c2ccccc2)c2cc(Cl)ccc12 [AZ28] |  |  |  | significant dose dependent inhibition | reduced | reduced | little effect |
